The values below come from PMC12191028, “Preparation of Nanoparticle-Immobilized Gold Surfaces for the Reversible Conjugation of Neurotensin Peptide” (Biomolecules, 2025).

Assay [1] has as its target high-affinity receptor (NTSR2). As to conditions: binding affinity to its high-affinity receptor (NTSR2) according to the literature; ref [69]; cited from earlier work.
The next assay deals with NTSR2 antibody. The assay is described as follows: NTSR2 antibody–NTS(8–13) peptide binding affinity by microscale thermophoresis (MST). As to conditions: Monolith NT.115 Pico, RED-NHS-labeled NTSR2 antibody 20 nM, PBS with 0.005% Tween-20, 20 min dark incubation, 16 serial dilutions from 0.5 mg/mL, free peptide in solution, n = 3, read-out: dissociation constant (Kd). Here is the method:
An RED-NHS 2nd generation protein labeling kit and Monolith NT.115 premium capillaries were obtained from NanoTemper Technologies (Munich, Germany). The binding affinity of the NTSR2 antibody–NTS(8–13) peptide interaction was evaluated using microscale thermophoresis (MST) with Monolith NT.115 Pico instrument (NanoTemper Technologies, Munich, Germany). The NTSR2 antibody was labeled with the Monolith protein labeling kit and RED-NHS 2nd generation kit and used as a target molecule in PBS with 0.005% Tween-20. Experiments were conducted using the Monolith NT.115 premium capillariesat Pico-RED 80% excitation power and medium MST power with thermophoresis. For the labeled NTSR2 antibody, a concentration of 20 nM was used, whereas for the NTS(8–13) peptide, 16 serial dilutions were prepared starting from 0.5 mg/mL. Dark incubation was performed for 20 min after mixing the target and ligand molecule. Triplicate results were analyzed using the M.O. affinity analysisv.2.3 software.

Turning to “RRPYIL [NTS(8–13), fragment of the neurotensin peptide (RRPYIL)]”, the Kd (as a rule, a measure of binding affinity in units of concentration) in assay [1] is 0.005 to 0.007 µM; on NTSR2 antibody, 32.9 µM.
